This note sets out measurements from article PMC12491701, “Discovery of an APP-selective BACE1 inhibitor for Alzheimer's disease” (Neurotherapeutics, 2025).

One data set concerns the target T1, BACE1 cleavage of PSGL1 (Homo sapiens, UniProt P56817).
T1 construct: with or without full-length wild-type BACE1; expressed in transfected cells; host or cells: HEK293
The data set is described as follows: PSGL1 assay (SEAP-PSGL1). The format is cell-based. Conditions: SEAP-PSGL1, HEK293.

A short description of another data set: Pharmacokinetics in mice. The format is in vivo, mouse. The settings on record: mice. How it is done:
Wildtype or non-transgenic (NTg) C57Bl6 mice or Sprague-Dawley rats were dosed by oral (gavage) or subcutaneous (SQ) injection at 10 or 30 mg/kg, and animals were euthanized 1, 2, 6, and 8 h after administration by ketamine/xylazine over-anesthesia, in rats, CSF was also collected, followed by transcardial collection of blood for isolation of plasma and saline perfusion. Brain tissue was collected post-mortem for assessment of compound levels and biomarkers.
Analyses of compound levels in PK studies were performed in the UCLA Pasarow Mass Spectrometry Lab (PMSL; Julian Whitelegge, Ph.D., Director). Tissues were homogenized in a bead beater using 5 vol of ice-cold 80 % acetonitrile (1/5; mg of brain/μL of 80 % ACN). Plasma analytes were extracted using 4 vol of ice-cold acetonitrile (1/4; μL of plasma/μL of 100 % ACN). Solutions were clarified by centrifugation (16,000×g, 5 min) and the supernatants were transferred to new tubes and lyophilized. Samples were reconstituted in 100 μL of 50/50/0.1 (Water/Acetonitrile/Formic Acid) prior to analysis via liquid chromatography-tandem mass spectrometry (LC-MS/MS).
An internal standard (IS) was added to every sample to account for compound loss during sample processing. Standards were made in drug naïve plasma and tissue lysates with increasing amounts of analyte (S1, S2: 0 pmol/S3, S4: 1 pmol/S5, S6: 10 pmol/S7, S8: 100 pmol, S9, S10: 1000 pmol). The standard curve was made by plotting the known amount of analyte per standard vs. the ratio of measured chromatographic peak areas corresponding to the analyte over that of the IS (analyte/IS). The trendline equation was then used to calculate the absolute concentrations of each compound in plasma and tissue.
The targeted LC-MS/MS assay was developed using the multiple reaction monitoring (MRM) acquisition method on a 6460 triple quadrupole mass spectrometer (Agilent Technologies) coupled to a 1290 Infinity HPLC system (Agilent Technologies) with a Phenomenex analytical column (Kinetex 1.7 μm C18 100 Å 100 × 2.1 mm). The HPLC method utilized a mixture of solvent A (99.9/0.1 Water/Formic Acid) and solvent B (99.9/0.1 Acetonitrile/Formic Acid) and a gradient was use for the elution of the compounds (min/%B: 0/1, 3/1, 19/99, 20/1, 30/1). Two fragment ions were monitored at specific LC retention times to ensure specificity and accurate quantification in the complex biological samples. The normalized chromatographic peak areas were determined by taking the ratio of measured chromatographic peak areas corresponding to the compound over that of the internal standard (Analyte/IS).
The Tmax, Cmax, brain-to-plasma ratios and brain levels were then calculated using PK Solutions software (SummitPK).

A short description of data set [1]: PK of FAH65E(-) in ApoE4-TR:5xFAD mice. The format is in vivo, mouse. The settings on record: 30 mkd oral, from brain Fu. How it is done: A PK/PD study of FAH65E(-) hydrochloride was performed using ApoE4-TR:5xFAD mice that express APOE4 under the control of the endogenous mouse APOE promoter crossed to 5xFAD mice (Tg6799) which co-express five FAD mutations (APP K670 N/M671L + I716V + V717I and PS1 M146L + L286V) under the control of the neuron-specific mouse Thy-1 promoter. The resulting mice, on a 97 % C57Bl/6J and 3 % SJL background, are homozygous for APOE4 and hemizygous for the 5XFAD transgenes. Both male and female mice 6–8 months of age were used. Mice received two doses (a.m. and p.m.) of 30 mg/kg FAH65E(-) by oral gavage on day 1; on day 2, after a single dose (a.m.) mice were euthanized at 1, 2, 4 and 6 h, n = 3 per time point. FAH65 and sAPPβ levels in brain were determined in brain tissue by LC-MS (see Supplementary Methods) and ELISA , respectively.

Data set [2] in a line: Brain tissue binding assay. It counts as in vitro ADME, mouse. Conditions: brain homogenate, 2 µM compound. How it is done: The […]
KIAM = (tr – t0) / t0; Pm = (KIAM / MW4) x 1010
Compounds with a Pm >0.85 are predicted to be BBB permeable (CNS+) at pH 7.4.
Brain Tissue Binding Assay
Brain tissue was homogenized in PBS (pH 7.4) (1: 3 weight(mg)/volume(µL)) and the protein concentration determined using the Micro BCA™ Pr otein Assay Kit (Thermo Fisher Scientific, Cat#23235). Brain homogenate was diluted to 20 mg/mL in PBS (pH 7.4) and added to Slide-A-Lyzer™ MINI Dialysis Devices, 10K MWCO dialysis cups (Thermo Fisher Scientific, Cat#PI88401) in a 48-well plate containing PBS (500 µL; pH 7.4). 1 µL of 1 mM compound was added to the brain homogenate (final concentration: 2 µM compound, 0.5% DMSO) and incubated on a rocker for 4.5 hours at 37 °C. 50 µL of brain homogenate (within the dialysis cup) and PBS (within the 48-well plate) were transferred to new microcentrifuge tubes containing 200 µL of quenching reagent (100% acetonitrile) containing internal standard. Solutions were clarified by centrifugation (16,000 x g, 5 min) and the supernatants were transferred to new tubes and lyophilized. Samples were reconstituted in 100 µL of 50/50/0.1 (Water/Acetonitrile/Formic Acid) prior to analysis via LC-MS/MS.
The % of the unbound drug was calculated using the following equation: fubound = [normalized peak area in buffer side / normalized peak area in brain side] x 100

The next data set has as its target eAPP (Homo sapiens, UniProt P05067). The data set is described as follows: APP binding by surface plasmon resonance (SPR). Conditions: SPR, in words.

Chain of eAPP (P05067 18-701): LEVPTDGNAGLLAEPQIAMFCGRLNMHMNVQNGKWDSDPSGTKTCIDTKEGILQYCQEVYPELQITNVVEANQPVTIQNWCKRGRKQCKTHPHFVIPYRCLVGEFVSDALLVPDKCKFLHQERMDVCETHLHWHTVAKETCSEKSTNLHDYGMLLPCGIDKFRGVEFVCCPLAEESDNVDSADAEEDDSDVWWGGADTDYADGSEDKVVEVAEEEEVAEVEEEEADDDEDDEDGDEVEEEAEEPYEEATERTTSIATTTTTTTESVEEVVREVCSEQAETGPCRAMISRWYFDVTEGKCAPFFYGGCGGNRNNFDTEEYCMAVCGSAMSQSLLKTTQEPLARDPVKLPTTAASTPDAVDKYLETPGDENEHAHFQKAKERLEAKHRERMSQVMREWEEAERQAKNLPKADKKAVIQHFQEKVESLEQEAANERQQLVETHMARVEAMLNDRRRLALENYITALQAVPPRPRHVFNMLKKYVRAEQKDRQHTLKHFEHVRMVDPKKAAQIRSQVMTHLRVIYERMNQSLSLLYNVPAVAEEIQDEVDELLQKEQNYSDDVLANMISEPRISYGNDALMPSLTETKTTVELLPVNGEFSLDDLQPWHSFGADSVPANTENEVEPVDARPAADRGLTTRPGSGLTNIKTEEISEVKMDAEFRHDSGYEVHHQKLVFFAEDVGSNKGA
T1 sequence (P56817 46-501): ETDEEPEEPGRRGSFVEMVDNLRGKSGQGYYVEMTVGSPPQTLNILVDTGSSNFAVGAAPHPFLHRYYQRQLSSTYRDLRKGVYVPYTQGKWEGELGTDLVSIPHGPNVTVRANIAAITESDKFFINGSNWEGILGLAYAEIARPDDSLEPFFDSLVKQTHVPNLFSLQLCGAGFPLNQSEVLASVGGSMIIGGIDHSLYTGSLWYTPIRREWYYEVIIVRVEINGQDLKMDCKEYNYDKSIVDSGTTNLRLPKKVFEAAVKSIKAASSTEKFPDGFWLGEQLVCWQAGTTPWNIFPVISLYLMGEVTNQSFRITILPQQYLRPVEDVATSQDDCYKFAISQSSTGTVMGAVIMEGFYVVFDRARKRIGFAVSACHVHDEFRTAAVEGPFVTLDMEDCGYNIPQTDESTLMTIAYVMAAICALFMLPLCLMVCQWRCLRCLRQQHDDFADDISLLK
Experimental for BACE1 cleavage of PSGL1: A cDNA construct encoding a human placental secreted alkaline phosphatase (SEAP)-PSGL1 (pAPtag5-PSGL1-β1) fusion protein was transfected in human embryonic kidney (HEK293) cells in a 6-well format with or without full-length wild-type BACE1 using Lipofectamine 2000 (Invitrogen). After 6–8 ​h transfection, the medium was replaced with DMEM containing the test compound at 10, 5, 1, 0.1 and 0.01 ​μM and 10 ​% heat-inactivated fetal bovine serum (FBS), and incubated for 24 ​h. SEAP activity was measured in the conditioned medium.
Experimental for eAPP: The interaction of FAH3, 17 and 65 were evaluated using the SPR protocol described previously in Descamps et al., [26].
For these pilot experiments eAPP as described in Descamps et al (26) is crosslinked to a the CM5 Biacore chip. FAH3 at various concentration was used in the flow through the chip, and the plasmon resonance signal was determined using a Biacore T100. The raw data uncorrected for contribution of running buffer is fit to equilibrium binding data and corrected for the contribution of the running buffer to
For FAH17 and FAH65-APP binding was determined using SPR to determine competition with BSA that non-specifically binds to the eAPP-Biacore chip.

On BACE1 cleavage of PSGL1, `Cc1cc(C2(c3cccc(-c4cncnc4)c3)N=C(N)N(C)C2=O)ccc1OC(F)F` (centres unmarked) [FAH65] had an EC50 of more than 10 µM. In the data set “Pharmacokinetics in mice” (C57Bl6, mouse, plasma, oral, 30 mg/kg), this compound registered a peak concentration (Cmax) of approximately 50 ng/mL. In “Pharmacokinetics in mice” (oral, 30 mg/kg), the “brain Cmax” value was 74 ng/g and the “time of brain Cmax” value is reported as 1 h. Moreover, in “Pharmacokinetics in mice” (subcutaneous (SQ), 10 or 30 mg/kg), the “compound levels in plasma” value is recorded as “over 3000 ng/mL”. Moreover, the “Unbound brain concentration at Cmax” value in data set [1] is listed as 9.6 nM. Further, in data set [2], the “Brain tissue binding, funbound” value worked out at 3.1%. Also, the “binding to eAPP” value at eAPP is reported as “relative to BSA but no KD”.
